Laboratory results taken from patent US8168795B2, “Selective sphingosine-1-phosphate receptor antagonists” (Allergan, Inc., priority 2009, dated 2012).
pIC50: −log10 of the molar value.

What follows are molecules tested against S1P3 receptor (Homo sapiens, UniProt Q99500) (assay: GTP γ35S binding assay, antagonist mode). Conditions: antagonist assay, reaction mixture contained 10 nM S1P; membranes; read-out: S1P3 GTPγ^35S IC50.
Format: biochemical
Description: B. Novel compounds were synthesized and tested for S1P3 activity using the GTP γ^35S binding assay. GTP γ^35S binding was measured in the medium containing (mM) HEPES 25, pH 7.4, MgCl2 10, NaCl 100, dithiothreitol 0.5, digitonin 0.003%, 0.2 nM GTP γ^35S, and 5 μg membrane protein in a volume of 150 μl. Test compounds were included in the concentration range from 0.08 to 5,000 nM unless indicated otherwise. Membranes were incubated with 100 μM 5′-adenylylimmidodiphosphate for 30 min, and subsequently with 10 μM GDP for 10 min on ice. Drug solutions and membrane were mixed, and then reactions were initiated by adding GTP γ^35S and continued for 30 min at 25° C. Reaction mixtures were filtered over Whatman GF/B filters under vacuum, and washed three times with 3 mL of ice-cold buffer (HEPES 25, pH7.4, MgCl2 10 and NaCl 100). Filters were dried and mixed with scintillant, and counted for ^35S activity using a β-counter. Agonist-induced GTP γ^35S binding was obtained by subtracting that in the absence of agonist. Binding data were analyzed using a non-linear regression method. In case of antagonist assay, the reaction mixture contained 10 nM S1P in the presence of test antagonist at concentrations ranging from 0.08 to 5000 nM.

S1P3 receptor, sequence (Q99500 whole entry): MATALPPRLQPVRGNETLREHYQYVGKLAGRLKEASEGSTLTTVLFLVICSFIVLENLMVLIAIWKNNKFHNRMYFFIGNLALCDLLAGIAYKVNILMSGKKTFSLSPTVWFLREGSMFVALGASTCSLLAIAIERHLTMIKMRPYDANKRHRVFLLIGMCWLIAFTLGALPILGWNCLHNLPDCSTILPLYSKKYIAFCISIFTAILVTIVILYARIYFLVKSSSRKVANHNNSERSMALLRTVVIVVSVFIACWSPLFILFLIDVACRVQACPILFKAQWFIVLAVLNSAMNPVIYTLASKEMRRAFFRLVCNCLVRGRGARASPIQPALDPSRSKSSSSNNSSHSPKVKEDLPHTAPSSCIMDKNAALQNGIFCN

SMILES	pIC50
CC1CCC(NC(NC(=O)c2ccc(Br)cc2)C(Cl)(Cl)Cl)CC1 (single isomer, unassigned) [Compound-49, 4-bromo-N-(2,2,2-trichloro-1-(4-methylcyclohexylamino)ethyl)benzamide]	6.17
O=C(NC(Nc1ccc(Cl)cc1)C(F)(F)C(F)(F)F)c1ccc(Br)cn1 (single isomer, unassigned; (-)) [Compound-32, (−)-5-bromo-N-(1-(4-chlorophenylamino)-2,2,3,3,3-pentafluoropropyl)picolinamide]	8.89
O=C(NC(Nc1ccc(Cl)cc1)C(=O)c1cccc2ccccc12)c1ccc(Br)cn1 (stereo not drawn) [Compound-1, 5-bromo-N-(1-(4-chlorophenylamino)-2-(naphthalen-1-yl)-2-oxoethyl)picolinamide]	8.00
O=C(NC(Nc1ccc(Cl)cc1)C(=O)c1ccc2ccccc2c1)c1ccc(Br)cn1 (stereo not drawn) [Compound-2, 5-bromo-N-(1-(4-chlorophenylamino)-2-(naphthalen-2-yl)-2-oxoethyl)picolinamide]	7.51
COc1cccc(C(=O)C(NC(=O)c2ccc(Br)cn2)Nc2ccc(Cl)cc2)c1 (stereo not drawn) [Compound-3, 5-bromo-N-(1-(4-chlorophenylamino)-2-(3-methoxyphenyl)-2-oxoethyl)picolinamide]	8.28
O=C(NC(Nc1ccc(Cl)cc1)c1ccc(Cl)cc1)c1ccc(Br)cn1 (stereo not drawn) [Compound-7, 5-Bromo-N-((4-chlorophenyl)(4-chlorophenylamino)methyl)picolinamide]	6.94
O=C(NC(Nc1ccc(Cl)cc1)c1cc2ccccc2o1)c1ccc(Br)cn1 (stereo not drawn) [Compound-10, N-(benzofuran-2-yl(4-chlorophenylamino)methyl)-5-bromopicolinamide]	8.33
CCC(Cl)(Cl)C(NC(=O)c1ccc(Br)cn1)Nc1ccc(Cl)cc1 (stereo not drawn) [Compound-27, 5-Bromo-N-(2,2-dichloro-1-(4-chlorophenylamino)butyl)picolinamide]	7.25
O=C(NC(Nc1ccc(Cl)cc1)C(F)(F)C(F)(F)C(F)(F)C(F)(F)F)c1ccc(Br)cn1 (stereo not drawn) [Compound-29]	8.26
O=C(NC(Nc1cnc(Cl)nc1)C(F)(F)C(F)(F)F)c1ccc(Br)cn1 (stereo not drawn) [Compound-35, 5-Bromo-N-(1-(2-chloropyrimidin-5-ylamino)-2,2,3,3,3-pentafluoropropyl)picolinamide]	8.70
O=C(NC(Nc1cnc(Cl)nc1)C(F)(F)C(F)(F)C(F)(F)C(F)(F)C(F)(F)C(F)F)c1ccc(Br)cn1 (stereo not drawn) [Compound-37, 5-Bromo-N-(1-(2-chloropyrimidin-5-ylamino)-2,2,3,3,4,4,5,5,6,6,7,7-dodecafluoroheptyl)picolinamide]	7.23

Same assay, conditions: enantiomers of Compound-28 separated by chiral HPLC; assay not stated

SMILES	activity of separated enantiomer
O=C(NC(Nc1ccc(Cl)cc1)C(F)(F)C(F)(F)F)c1ccc(Br)cn1 (single isomer, unassigned; (-)) [Compound-32, (−)-5-bromo-N-(1-(4-chlorophenylamino)-2,2,3,3,3-pentafluoropropyl)picolinamide]	active enantiomer
